This is an account of results in ChEMBL document CHEMBL5550178, “Synthesis and anticancer properties of novel dolastatin 10 analogs featuring five-membered heterocyclic rings with a linkable group at the C-terminus” (Bioorg Med Chem, 2024).

Each structure is given as a SMILES string. Non-standard residues stand in square brackets, D forms with d. Residues, ends and D or L forms follow the SMILES beside them. Dolaproine = CO[C@@H]([C@@H]1CCCN1)[C@@H](C)C(=O)O; Dil = CC[C@H](C)[C@H](NC)[C@@H](CC(=O)O)OC; NMeV = CN[C@H](C(=O)O)C(C)C

Series [1] has as its system PC-3. In words: Induction of cell cycle arrest in human PC-3 cells assessed as accumulation of cells at G1/G0 phase at 1000 nM measured after 6 days by PI staining based flow cytometry analysis (reference value: 79.8%). The class given is functional. The following applies: time 6 day. In general terms: A flow cytometer gives signals particle by particle.
Series [2] relates to PC-3. In words: Induction of cell cycle arrest in human PC-3 cells assessed as accumulation of cells at S phase at 1 nM measured after 6 days by PI staining based flow cytometry analysis (reference value: 8.60%). The class given is functional. To be noted: time 6 day.
The test system of series [3] is PC-3. In words: Induction of cell cycle arrest in human PC-3 cells assessed as accumulation of cells at S phase at 1000 nM measured after 8 days by PI staining based flow cytometry analysis (reference value: 12.9%). The class given is functional. The following applies: time 8 day.
The test system of series [4] is PC-3. In words: Induction of cell cycle arrest in human PC-3 cells assessed as accumulation of cells at S phase at 1000 nM measured after 6 days by PI staining based flow cytometry analysis (reference value: 8.60%). The class given is functional. The following applies: time 6 day.
Series [5] deals with PC-3. Nature of the series: Induction of cell cycle arrest in human PC-3 cells assessed as accumulation of cells at G2/M phase at 1 nM measured after 6 days by PI staining based flow cytometry analysis (reference value: 9.96%). The class given is functional. The following applies: time 6 day.
The test system of series [6] is PC-3. Nature of the series: Induction of cell cycle arrest in human PC-3 cells assessed as accumulation of cells at G1/G0 phase at 1 nM measured after 8 days by PI staining based flow cytometry analysis (reference value: 73.2%). The class given is functional. The following applies: time 8 day.
For series [7], the system named is PC-3. In words: Induction of cell cycle arrest in human PC-3 cells assessed as accumulation of cells at S phase at 1000 nM measured after 4 days by PI staining based flow cytometry analysis (reference value: 17.9%). The class given is functional. The following applies: time 4 day.
Series [8] concerns PC-3. In words: Induction of cell cycle arrest in human PC-3 cells assessed as accumulation of cells at G1/G0 phase at 1 nM measured after 6 days by PI staining based flow cytometry analysis (reference value: 79.8%). The class given is functional. To be noted: time 6 day.
In series [9] the test system is PC-3. Nature of the series: Induction of cell cycle arrest in human PC-3 cells assessed as accumulation of cells at G1/G0 phase at 50 nM measured after 4 days by PI staining based flow cytometry analysis (reference value: 67.6%). The class given is functional. To be noted: time 4 day.
Series [10] deals with PC-3. In words: Induction of cell cycle arrest in human PC-3 cells assessed as accumulation of cells at G2/M phase at 50 nM measured after 6 days by PI staining based flow cytometry analysis (reference value: 9.96%). The following applies: time 6 day. The class given is functional.
Series [11] deals with PC-3. In words: Induction of cell cycle arrest in human PC-3 cells assessed as accumulation of cells at G2/M phase at 1 nM measured after 8 days by PI staining based flow cytometry analysis (reference value: 13.9%). The class given is functional. The following applies: time 8 day.
Series [12] deals with PC-3. Nature of the series: Induction of cell cycle arrest in human PC-3 cells assessed as accumulation of cells at S phase at 50 nM measured after 4 days by PI staining based flow cytometry analysis (reference value: 17.9%). To be noted: time 4 day. The class given is functional.
In series [13] the test system is PC-3. Nature of the series: Induction of cell cycle arrest in human PC-3 cells assessed as accumulation of cells at G2/M phase at 1000 nM measured after 8 days by PI staining based flow cytometry analysis (reference value: 13.9%). The class given is functional. The following applies: time 8 day.
For series [14], the system named is PC-3. In words: Induction of cell cycle arrest in human PC-3 cells assessed as accumulation of cells at S phase at 1 nM measured after 4 days by PI staining based flow cytometry analysis (reference value: 17.9%). The class given is functional. To be noted: time 4 day.
Series [15] relates to PC-3. Nature of the series: Induction of cell cycle arrest in human PC-3 cells assessed as accumulation of cells at G2/M phase at 50 nM measured after 4 days by PI staining based flow cytometry analysis (reference value: 10.7%). The following applies: time 4 day. The class given is functional.
For series [16], the system named is PC-3. Nature of the series: Induction of cell cycle arrest in human PC-3 cells assessed as accumulation of cells at G2/M phase at 1000 nM measured after 4 days by PI staining based flow cytometry analysis (reference value: 10.7%). The class given is functional. To be noted: time 4 day.
Series [17] relates to PC-3. In words: Induction of cell cycle arrest in human PC-3 cells assessed as accumulation of cells at S phase at 1 nM measured after 8 days by PI staining based flow cytometry analysis (reference value: 12.9%). The class given is functional. The following applies: time 8 day.
Series [18] has as its system PC-3. Nature of the series: Induction of cell cycle arrest in human PC-3 cells assessed as accumulation of cells at G1/G0 phase at 1 nM measured after 4 days by PI staining based flow cytometry analysis (reference value: 67.6%). The class given is functional. The following applies: time 4 day.
Series [19] has as its system PC-3. Nature of the series: Induction of cell cycle arrest in human PC-3 cells assessed as accumulation of cells at G2/M phase at 1 nM measured after 4 days by PI staining based flow cytometry analysis (reference value: 10.7%). The class given is functional. To be noted: time 4 day.
The subject of series [20] is PC-3. Nature of the series: Induction of cell cycle arrest in human PC-3 cells assessed as accumulation of cells at G1/G0 phase at 1000 nM measured after 8 days by PI staining based flow cytometry analysis (reference value: 73.2%). The class given is functional. To be noted: time 8 day.
Series [21] concerns PC-3. Nature of the series: Induction of cell cycle arrest in human PC-3 cells assessed as accumulation of cells at G1/G0 phase at 50 nM measured after 6 days by PI staining based flow cytometry analysis (reference value: 79.8%). The following applies: time 6 day. The class given is functional.
Series [22] relates to PC-3. Nature of the series: Induction of cell cycle arrest in human PC-3 cells assessed as accumulation of cells at G2/M phase at 50 nM measured after 8 days by PI staining based flow cytometry analysis (reference value: 13.9%). The class given is functional. The following applies: time 8 day.
Series [23] concerns PC-3. Nature of the series: Induction of cell cycle arrest in human PC-3 cells assessed as accumulation of cells at G1/G0 phase at 1000 nM measured after 4 days by PI staining based flow cytometry analysis (reference value: 67.6%). The class given is functional. To be noted: time 4 day.
In series [24] the test system is PC-3. In words: Induction of cell cycle arrest in human PC-3 cells assessed as accumulation of cells at G1/G0 phase at 50 nM measured after 8 days by PI staining based flow cytometry analysis (reference value: 73.2%). The class given is functional. The following applies: time 8 day.
The subject of series [25] is PC-3. Nature of the series: Induction of cell cycle arrest in human PC-3 cells assessed as accumulation of cells at S phase at 50 nM measured after 6 days by PI staining based flow cytometry analysis (reference value: 8.60%). The class given is functional. The following applies: time 6 day.
The subject of series [26] is PC-3. Nature of the series: Induction of cell cycle arrest in human PC-3 cells assessed as accumulation of cells at G2/M phase at 1000 nM measured after 6 days by PI staining based flow cytometry analysis (reference value: 9.96%). The class given is functional. The following applies: time 6 day.
Series [27] has as its system PC-3. Nature of the series: Induction of cell cycle arrest in human PC-3 cells assessed as accumulation of cells at S phase at 50 nM measured after 8 days by PI staining based flow cytometry analysis (reference value: 12.9%). The class given is functional. The following applies: time 8 day.
The nature of series [28]: Drug uptake in human PC-3 cells assessed as increase in fluorescence intensity at upto 1000 nM by Hoechst nuclear dye based fluorescent microscopic analysis. The class given is ADME, cell-based. To be noted: pc-3, 1 µM.

On to `CC[C@H](C)[C@@H]([C@@H](CC(=O)N1CCC[C@H]1[C@H](OC)[C@@H](C)C(=O)N[C@@H](Cc1ccccc1)C(=O)O)OC)N(C)C(=O)[C@@H](NC(=O)[C@@H](NC)C(C)C)C(C)C` (H-[NMeV]V[Dil][Dolaproine]F-OH), for which the Activity worked out at 44.7% in the series on PC-3 [1]; 11.8% with PC-3 [2]; 60.7% with PC-3 [3]; 47.6% with PC-3 [4]; 10.6% with PC-3 [5]; 65.8% in the series on PC-3 [6]. The Activity in the series on PC-3 [7] was 47.6%; in the series on PC-3 [8], 75.5%; in the series with PC-3 [9], 58.5%; in the series with PC-3 [10], 5.39%; in the series with PC-3 [11], 17.2%; with PC-3 [12], 30.1%. In addition, the Activity with PC-3 [13] came out at 12.6%; in the series on PC-3 [14], 20.8%; in the series with PC-3 [15], 8.23%; in the series on PC-3 [16], 3.87%; in the series with PC-3 [17], 19%; in the series on PC-3 [18], 68.9%. In addition, the Activity with PC-3 [19] stood at 7.89%; with PC-3 [20], 27.5%; with PC-3 [21], 70.6%; in the series with PC-3 [22], 18.4%; in the series on PC-3 [23], 44.7%; with PC-3 [24], 50.8%. The Activity in the series with PC-3 [25] is on record as 20.2%; with PC-3 [26] it was 3.87%; in the series with PC-3 [27], 32%.

Regarding `CC[C@H](C)[C@@H]([C@@H](CC(=O)N1CCC[C@H]1[C@H](OC)[C@@H](C)C(=O)N[C@@H](Cc1ccccc1)c1nc(CNC(=O)CCC(=O)N2CCN(C(=O)c3ccccc3-c3c4ccc(=[N+](CC)CC)cc-4oc4cc(N(CC)CC)ccc34)CC2)cs1)OC)N(C)C(=O)[C@@H](NC(=O)[C@H](C(C)C)N(C)C)C(C)C` (stereo in doubt), in [28], the Drug uptake entry is “Active”.
